Laboratory results from patent US10005774B2, “Syk inhibitors” (Gilead Sciences, Inc., priority 2013, dated 2018).

Each molecule was assayed against Syk (Homo sapiens, UniProt P43405) (assay: High Throughput Syk Biochemical Assay (KinEASE TR-FRET)). Details: TABLE D, 20 μM ATP, 1 μM biotinylated peptide, 0.015 nM Syk, 30 min at room temperature, read-out: IC50.
Outline: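 Compounds in DMSO dilution series were tested against Syk, which phosphorylates an XL665-tagged peptide. The phosphoproduct was bound by Eu-labelled phosphotyrosine antibody in a two-step endpoint format.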

IC50 [nM] | Structure (SMILES)
27.7 | C[C@@H](Oc1nc(-c2ccc(S(C)(=O)=O)cc2)cc2ncn(C)c12)[C@H]1CNC(=O)C1 [(R)-4-((R)-1-(3-methyl-6-(4-(methylsulfonyl)phenyl)-3H-imidazo[4,5-c]pyridin-4-yloxy)ethyl)pyrrolidin-2-one]
0.699 | C[C@@H](Oc1cc(-c2cnn(C3CCOCC3)c2)cc2ncsc12)[C@H]1CNC(=O)C1 (stereo in doubt) [(R)-4-((R)-1-((5-(1-(tetrahydro-2H-pyran-4-yl)-1H-pyrazol-4-yl)benzo[d]thiazol-7-yl)oxy)ethyl)pyrrolidin-2-one]
33.8 | C[C@@H](Oc1nc(-c2ccccc2)cc2ncn(C)c12)[C@H]1CNC(=O)C1 [(R)-4-((R)-1-(3-methyl-6-phenyl-3H-imidazo[4,5-c]pyridin-4-yloxy)ethyl)pyrrolidin-2-one]
1.07 | COc1ccc(-c2cc(O[C@H](C)[C@H]3CNC(=O)C3)c3c(Cl)cnn3c2)cc1OC [(R)-4-((R)-1-((3-chloro-6-(3,4-dimethoxyphenyl)pyrazolo[1,5-a]pyridin-4-yl)oxy)ethyl)pyrrolidin-2-one]
13.4 | C[C@@H](Oc1nc(-c2ccc(S(=O)(=O)N(C)C)cc2)cc2ncn(C)c12)[C@H]1CNC(=O)C1 [N,N-dimethyl-4-(3-methyl-4-((R)-1-((R)-5-oxopyrrolidin-3-yl)ethoxy)-3H-imidazo[4,5-c]pyridin-6-yl)benzenesulfonamide]
3.14 | CC(=O)N1CCN(c2ccc(-c3cc4ncn(C)c4c(O[C@H](C)[C@H]4CNC(=O)C4)n3)cc2)CC1 [(R)-4-((R)-1-(6-(4-(4-acetylpiperazin-1-yl)phenyl)-3-methyl-3H-imidazo[4,5-c]pyridin-4-yloxy)ethyl)pyrrolidin-2-one]

The next lines start with the molecule.

Structure (SMILES) | IC50 [nM]
COc1ccc(-c2cc(O[C@H](C)[C@H]3CNC(=O)C3)c3scnc3c2)nc1OC (stereo in doubt) [(R)-4-((R)-1-((5-(5,6-dimethoxypyridin-2-yl)benzo[d]thiazol-7-yl)oxy)ethyl)pyrrolidin-2-one] | 0.689
CC[C@@H](Oc1nc(-c2cnn(C(C)(C)C)c2)cc2ncn(C)c12)[C@H]1CNC(=O)C1 [(R)-4-((R)-1-(6-(1-tert-butyl-1H-pyrazol-4-yl)-3-methyl-3H-imidazo[4,5-c]pyridin-4-yloxy)propyl)pyrrolidin-2-one] | 24
COc1ccc(-c2cc3ncn(C)c3c(O[C@H](C)[C@H]3CNC(=O)C3)n2)nc1OC [(R)-4-((R)-1-(6-(5,6-dimethoxypyridin-2-yl)-3-methyl-3H-imidazo[4,5-c]pyridin-4-yloxy)ethyl)pyrrolidin-2-one] | 34
COc1ccc(-c2cc3nc(C)n(C)c3c(O[C@H](C)[C@H]3CNC(=O)C3)n2)cc1OC [(4R)-4-((1R)-1-(6-(3,4-dimethoxyphenyl)-2,3-dimethyl-3a,7a-dihydro-3H-imidazo[4,5-c]pyridin-4-yloxy)ethyl)pyrrolidin-2-one] | 25.4
C[C@@H](Oc1nc(-c2ccc3c(c2)C(=O)NCCO3)cc2ncn(C)c12)[C@H]1CNC(=O)C1 [7-(3-methyl-4-((R)-1-((R)-5-oxopyrrolidin-3-yl)ethoxy)-3H-imidazo[4,5-c]pyridin-6-yl)-3,4-dihydrobenzo[f][1,4]oxazepin-5(2H)-one] | 30.6
COc1ccc(-c2cc3ncn(CF)c3c(O[C@H](C)[C@H]3CNC(=O)C3)n2)cc1OC [(R)-4-((R)-1-(6-(3,4-dimethoxyphenyl)-3-(fluoromethyl)-3H-imidazo[4,5-c]pyridin-4-yloxy)ethyl)pyrrolidin-2-one] | 2.49

Same assay, conditions: table 'ALL NEW COMPOUNDS IN 2014', 20 μM ATP, 1 μM biotinylated peptide, 0.015 nM Syk, 30 min at room temperature, read-out: Syk IC50

IC50 [nM] | Structure (SMILES)
14.4 | C[C@@H](Oc1nc(-c2ccc3oc(=O)n(C)c3c2)cc2ncn(C3CC3)c12)[C@H]1CNC(=O)C1
7.55 | C[C@@H](Oc1nc(-c2ccc3c(c2)N(C)C(=O)C32CN(C)C2)cc2ncn(C3CC3)c12)[C@H]1CNC(=O)C1 [6′-(3-cyclopropyl-4-((R)-1-((R)-5-oxopyrrolidin-3-yl)ethoxy)-3H-imidazo[4,5-c]pyridin-6-yl)-1,1′-dimethylspiro[azetidine-3,3′-indolin]-2′-one]
3.08 | C[C@@H](Oc1cc(-c2ccc(N3CCN(C4COC4)CC3)c(F)c2)cc2ncn(C3CC3)c12)[C@H]1CNC(=O)C1 [(R)-4-((R)-1-((1-cyclopropyl-5-(3-fluoro-4-(4-(oxetan-3-yl)piperazin-1-yl)phenyl)-1H-benzo[d]imidazol-7-yl)oxy)ethyl)pyrrolidin-2-one]
1.99 | C[C@@H](Oc1cc(-c2cnn(C(C)(C)CO)c2)cc2ncn(C3CC3)c12)[C@H]1CNC(=O)C1 [(R)-4-((R)-1-((1-cyclopropyl-5-(1-(1-hydroxy-2-methylpropan-2-yl)-1H-pyrazol-4-yl)-1H-benzo[d]imidazol-7-yl)oxy)ethyl)pyrrolidin-2-one]
0.54 | C[C@@H](Oc1cc(-c2cnc(C3CCOCC3)s2)cc2ncn(C3CC3)c12)[C@H]1CNC(=O)C1 [(R)-4-((R)-1-((1-cyclopropyl-5-(2-(tetrahydro-2H-pyran-4-yl)thiazol-5-yl)-1H-benzo[d]imidazol-7-yl)oxy)ethyl)pyrrolidin-2-one]
2.17 | C[C@@H](Oc1nc(-c2ccc(N3CCn4c(nnc4C(F)(F)F)C3)cc2)cc2ncn(C3CC3)c12)[C@H]1CNC(=O)C1 [(R)-4-((R)-1-((3-cyclopropyl-6-(4-(3-(trifluoromethyl)-5,6-dihydro-[1,2,4]triazolo[4,3-a]pyrazin-7(8H)-yl)phenyl)-3H-imidazo[4,5-c]pyridin-4-yl)oxy)ethyl)pyrrolidin-2-one]

Continued, molecule first:

Structure (SMILES) | IC50 [nM]
C[C@@H](Oc1nc(-c2cnc(C(F)(F)F)s2)cc2ncn(C3CC3)c12)[C@H]1CNC(=O)C1 [(R)-4-((R)-1-((3-cyclopropyl-6-(2-(trifluoromethyl)thiazol-5-yl)-3H-imidazo[4,5-c]pyridin-4-yl)oxy)ethyl)pyrrolidin-2-one] | 67.7
C[C@@H](Oc1cc(-c2ccc3c(c2)NCCN3C)cc2ncn(C3CC3)c12)[C@H]1CNC(=O)C1 [(R)-4-((R)-1-((1-cyclopropyl-5-(1-methyl-1,2,3,4-tetrahydroquinoxalin-6-yl)-1H-benzo[d]imidazol-7-yl)oxy)ethyl)pyrrolidin-2-one] | 3.83
C[C@@H](Oc1cc(-c2ccc(N3CCN(C4COC4)CC3)nc2)cc2ncn(C3CC3)c12)[C@H]1CNC(=O)C1 [(R)-4-((R)-1-((1-cyclopropyl-5-(6-(4-(oxetan-3-yl)piperazin-1-yl)pyridin-3-yl)-1H-benzo[d]imidazol-7-yl)oxy)ethyl)pyrrolidin-2-one] | 7.38
C[C@@H](Oc1nc(-c2cnc(N3CCOCC3)s2)cc2ncn(C3CC3)c12)[C@H]1CNC(=O)C1 [(R)-4-((R)-1-((3-cyclopropyl-6-(2-morpholinothiazol-5-yl)-3H-imidazo[4,5-c]pyridin-4-yl)oxy)ethyl)pyrrolidin-2-one] | 2.13
C[C@@H](Oc1cc(-c2ccc3c(c2)NCCO3)cc2ncn(C3CC3)c12)[C@H]1CNC(=O)C1 [(R)-4-((R)-1-((1-cyclopropyl-5-(3,4-dihydro-2H-benzo[b][1,4]oxazin-6-yl)-1H-benzo[d]imidazol-7-yl)oxy)ethyl)pyrrolidin-2-one] | 2.56
C[C@@H](Oc1cc(-c2ccn(C(C)(C)C)n2)cc2ncn(C3CC3)c12)[C@H]1CNC(=O)C1 [(R)-4-((R)-1-((5-(1-(tert-butyl)-1H-pyrazol-3-yl)-1-cyclopropyl-1H-benzo[d]imidazol-7-yl)oxy)ethyl)pyrrolidin-2-one] | 5.01
